Laboratory results published in article PMC5424325, “Effect of health foods on cytochrome P450-mediated drug metabolism” (Journal of Pharmaceutical Health Care and Sciences, 2017).

Key:
CYP2C9 [1] = target: T1, CYP2C9 (Homo sapiens, UniProt P11712); experiment: Kinetic analysis of diclofenac 4′-hydroxylation in Ad-P450 cells; format: in vitro ADME
T1 construct: expressed in transfected cells; host or cells: HepG2 cells infected with Ad-CYP2C9 (1 MOI) together with the four other P450 adenoviruses
Procedure: The column oven temperature was maintained at 40 °C.

CYP1A2 [2] = target: T2, CYP1A2 (Homo sapiens, UniProt P05177); conditions: Phenacetin O-deethylation, Ad-P450 cells, 5 h
T2 sequence (P05177 1-516): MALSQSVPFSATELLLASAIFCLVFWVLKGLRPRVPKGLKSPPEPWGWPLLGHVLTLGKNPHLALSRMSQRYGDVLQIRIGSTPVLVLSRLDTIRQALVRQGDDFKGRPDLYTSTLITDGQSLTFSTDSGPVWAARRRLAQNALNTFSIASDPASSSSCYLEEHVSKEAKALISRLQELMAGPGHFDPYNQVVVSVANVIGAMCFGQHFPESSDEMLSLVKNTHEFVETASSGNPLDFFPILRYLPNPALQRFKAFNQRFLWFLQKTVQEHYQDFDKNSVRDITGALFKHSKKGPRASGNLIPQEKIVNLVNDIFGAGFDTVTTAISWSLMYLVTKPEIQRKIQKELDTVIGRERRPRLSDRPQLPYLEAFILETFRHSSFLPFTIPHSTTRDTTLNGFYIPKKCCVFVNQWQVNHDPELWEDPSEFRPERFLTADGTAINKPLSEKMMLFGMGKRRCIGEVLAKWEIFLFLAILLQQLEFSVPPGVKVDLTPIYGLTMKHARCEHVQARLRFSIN
Procedure: (§1) The cells were seeded in a 48-well tissue culture plate (Becton Dickinson) at 5.0 × 10^4 cells/well. After 48 h, the cells were simultaneously infected with Ad-CYP1A2 at 5 multiplicity of infection (MOI), Ad-CYP2C9 at 1 MOI, Ad-CYP2C19 at 2 MOI, Ad-CYP2D6 at 0.05 MOI, and Ad-CYP3A4 at 10 MOI. […] After shaking, the mixtures were centrifuged at 2500 × g for 10 min and the supernatants were evaporated to dryness at 60 °C in a block incubator. The residues were dissolved in acetonitrile containing 0.1% acetic acid and the solutions were subjected to liquid chromatography/tandem mass spectrometry (LC-MS/MS) analysis.
(§2) The Prominence system (Shimadzu Corporation, Kyoto, Japan) equipped with LCMS-8040 system (Shimadzu Corporation) was used for LC-MS/MS analysis with an electrospray ionization interface. The ionization mode used was positive in the multiple reaction monitoring. The chromatographic separation was performed on Xterra MS C18 columns (2.1 mm × 100 mm, 5 μm) (Waters, Milford, MA, USA). The column oven temperature was maintained at 40 °C. The mobile phase consisted of acetonitrile containing 0.1% acetic acid and water containing 0.1% acetic acid (85:15) with a flow rate of 200 μL/min. […]
(§3) The Km, Vmax, and IC50 values were determined using Prism software (version 6.0; GraphPad Software Inc., San Diego, CA, USA).

CYP1A2 [3] = conditions: cited from earlier work
CYP2C9 [4] = conditions: competitive inhibitor; cited from earlier work
CYP3A4 [5] = conditions: cited from earlier work
CYP2C19 [6] = target: T3, CYP2C19 (Homo sapiens, UniProt P33261); experiment: CYP2C19 inhibition (omeprazole 5-hydroxylation) in Ad-P450 cells, substrate cocktail; format: in vitro ADME; conditions: probe omeprazole (5-hydroxylation), read-out: Residual activity CYP2C19
T3 construct: expressed in transfected cells; host or cells: HepG2 cells infected with Ad-CYP2C19 (2 MOI) together with the four other P450 adenoviruses

CYP2D6 [7] = target: T4, CYP2D6 (Homo sapiens, UniProt P10635); experiment: CYP2D6 inhibition (dextromethorphan O-demethylation) in Ad-P450 cells, substrate cocktail; format: in vitro ADME; conditions: read-out: Residual activity CYP2D6
T4 construct: expressed in transfected cells; host or cells: HepG2 cells infected with Ad-CYP2D6 (0.05 MOI) together with the four other P450 adenoviruses

CYP3A4 [8] = target: T5, CYP3A4 (Homo sapiens, UniProt P08684); experiment: CYP3A4 inhibition (midazolam 1′-hydroxylation) in Ad-P450 cells, substrate cocktail; format: in vitro ADME; conditions: probe midazolam (1′-hydroxylation), read-out: Residual activity CYP3A4
T5 construct: expressed in transfected cells; host or cells: HepG2 cells infected with Ad-CYP3A4 (10 MOI) together with the four other P450 adenoviruses

CYP1A2 [9] = target: T2, CYP1A2; experiment: CYP1A2 inhibition (phenacetin O-deethylation) in Ad-P450 cells, substrate cocktail; format: in vitro ADME; design: expressed in transfected cells; host or cells: HepG2 cells infected with Ad-CYP1A2 (5 MOI) together with the four other P450 adenoviruses; conditions: probe phenacetin (O-deethylation), read-out: Residual activity CYP1A2
CYP2C19 [10] = target: T3, CYP2C19; experiment: Kinetic analysis of omeprazole 5-hydroxylation in Ad-P450 cells; format: in vitro ADME
Procedure: as §1, §2, §3

CYP2D6 [11] = target: T4, CYP2D6; experiment: Kinetic analysis of dextromethorphan O-demethylation in Ad-P450 cells; format: in vitro ADME
Procedure: as §1, §2, §3

CYP3A4 [12] = target: T5, CYP3A4; experiment: Kinetic analysis of midazolam 1′-hydroxylation in Ad-P450 cells; format: in vitro ADME
Procedure: as §1, §2, §3

T5 sequence (P08684 whole entry): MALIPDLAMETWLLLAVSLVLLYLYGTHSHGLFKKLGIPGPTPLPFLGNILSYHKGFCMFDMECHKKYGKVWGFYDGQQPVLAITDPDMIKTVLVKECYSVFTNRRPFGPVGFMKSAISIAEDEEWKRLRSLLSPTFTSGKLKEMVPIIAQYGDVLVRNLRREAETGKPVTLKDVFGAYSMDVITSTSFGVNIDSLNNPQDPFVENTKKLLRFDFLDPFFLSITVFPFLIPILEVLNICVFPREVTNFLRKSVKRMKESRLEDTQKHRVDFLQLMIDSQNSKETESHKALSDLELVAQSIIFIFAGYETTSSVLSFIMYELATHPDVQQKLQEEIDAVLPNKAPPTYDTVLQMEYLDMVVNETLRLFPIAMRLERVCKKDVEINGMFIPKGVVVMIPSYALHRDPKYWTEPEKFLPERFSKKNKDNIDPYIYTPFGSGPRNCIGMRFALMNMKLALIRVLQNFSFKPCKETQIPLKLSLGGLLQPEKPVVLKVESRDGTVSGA
T3 sequence (P33261 whole entry): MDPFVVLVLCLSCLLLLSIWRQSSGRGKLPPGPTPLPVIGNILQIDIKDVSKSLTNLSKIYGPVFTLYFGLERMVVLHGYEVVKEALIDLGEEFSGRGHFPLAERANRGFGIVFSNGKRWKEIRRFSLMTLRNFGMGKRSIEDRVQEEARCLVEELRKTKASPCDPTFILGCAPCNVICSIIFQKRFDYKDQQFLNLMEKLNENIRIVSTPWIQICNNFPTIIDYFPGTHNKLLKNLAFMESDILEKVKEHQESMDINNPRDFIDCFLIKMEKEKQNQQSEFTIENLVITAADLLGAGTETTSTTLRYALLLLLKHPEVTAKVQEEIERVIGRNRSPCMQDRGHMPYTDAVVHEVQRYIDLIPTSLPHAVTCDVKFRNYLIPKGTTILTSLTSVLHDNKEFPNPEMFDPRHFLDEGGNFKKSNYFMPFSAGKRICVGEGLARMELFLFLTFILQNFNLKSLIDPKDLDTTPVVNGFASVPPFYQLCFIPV
T4 sequence (P10635 whole entry): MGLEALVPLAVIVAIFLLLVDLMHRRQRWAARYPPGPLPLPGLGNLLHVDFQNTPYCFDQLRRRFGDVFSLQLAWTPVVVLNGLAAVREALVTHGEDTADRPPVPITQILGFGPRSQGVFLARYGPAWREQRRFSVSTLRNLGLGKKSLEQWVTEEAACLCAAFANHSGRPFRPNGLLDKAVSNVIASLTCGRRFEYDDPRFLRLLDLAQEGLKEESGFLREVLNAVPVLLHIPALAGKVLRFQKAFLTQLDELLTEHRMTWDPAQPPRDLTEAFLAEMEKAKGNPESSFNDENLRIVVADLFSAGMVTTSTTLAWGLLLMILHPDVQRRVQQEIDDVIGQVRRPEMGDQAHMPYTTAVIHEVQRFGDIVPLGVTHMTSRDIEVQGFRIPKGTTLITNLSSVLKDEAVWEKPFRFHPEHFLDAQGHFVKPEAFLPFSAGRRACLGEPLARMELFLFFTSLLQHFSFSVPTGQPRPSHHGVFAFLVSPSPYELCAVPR
T1 sequence (P11712 whole entry): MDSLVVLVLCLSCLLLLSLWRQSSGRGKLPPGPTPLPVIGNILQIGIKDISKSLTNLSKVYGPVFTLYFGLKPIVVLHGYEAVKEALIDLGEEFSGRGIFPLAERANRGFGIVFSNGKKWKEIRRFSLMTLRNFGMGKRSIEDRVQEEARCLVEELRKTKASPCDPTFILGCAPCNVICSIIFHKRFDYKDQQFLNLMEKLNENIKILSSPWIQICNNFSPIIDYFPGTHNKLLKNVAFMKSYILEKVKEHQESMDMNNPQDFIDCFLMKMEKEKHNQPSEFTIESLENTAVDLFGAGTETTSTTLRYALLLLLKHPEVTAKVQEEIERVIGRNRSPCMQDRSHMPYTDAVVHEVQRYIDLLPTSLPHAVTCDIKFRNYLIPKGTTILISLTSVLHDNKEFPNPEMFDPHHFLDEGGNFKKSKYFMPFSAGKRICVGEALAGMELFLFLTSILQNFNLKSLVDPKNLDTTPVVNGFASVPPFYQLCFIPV

O=C(O)Cc1ccccc1Nc1c(Cl)cccc1Cl [Diclofenac]
Vmax (CYP2C9 [1]; 5 h): 239.9 pmol/well/hr
Km at 5 h (CYP2C9 [1]; human): 5.87 µM

CCOc1ccc(NC(C)=O)cc1 [Phenacetin]
Vmax (CYP1A2 [2]): 100.30 pmol/well/hr

c1cc2c(cc1[C@H]1OC[C@H]3[C@@H]1CO[C@@H]3c1ccc3c(c1)OCO3)OCO2 [Sesamin]
Ki (CYP1A2 [3]): 75 µM
Ki (CYP2C9 [4]): 24 µM
Ki (CYP3A4 [5]): 4.2 µM

COc1cc(/C=C/C(=O)CC(=O)/C=C/c2ccc(O)c(OC)c2)ccc1O [curcumin]
activity at 5 h, 50 μM (CYP2C19 [6]): 72.7%
activity at 5 h, 50 μM (CYP2D6 [7]): 71.9%
activity at 5 h, 50 μM (CYP3A4 [8]): 61.9%
activity at 5 h, 50 μM (CYP1A2 [9]): 58.3%

COc1ccc2[nH]c([S+]([O-])Cc3ncc(C)c(OC)c3C)nc2c1 (stereo not shown) [Omeprazole]
Vmax (CYP2C19 [10]; 5 h): 4.66 pmol/well/hr
Km at 5 h (CYP2C19 [10]; human): 2.75 µM

COc1ccc2c(c1)[C@]13CCCC[C@@H]1[C@H](C2)N(C)CC3 [Dextromethorphan]
Vmax (CYP2D6 [11]; Dextromethorphan O-demethylation, Ad-P450 cells, 5 h): 1.10 pmol/well/hr
Km at 5 h (CYP2D6 [11]; human): 17.1 µM

Cc1ncc2n1-c1ccc(Cl)cc1C(c1ccccc1F)=NC2 [Midazolam]
Vmax (CYP3A4 [12]; Midazolam 1′-hydroxylation, Ad-P450 cells, 5 h): 12.30 pmol/well/hr
Km at 5 h (CYP3A4 [12]; human): 1 µM
